# Experiments:
# [1] = system: LDL-cholesterol concentration in blood plasma; experiment: LDL-cholesterol concentration in blood plasma of rats after repeated oral administration (Example 1); type: in vivo, Male Sprague Dawley rats; conditions: one week after the administration, oral once a day, pitavastatin 10 mg/kg, compound A 0.3 mg/kg, N = 8; for LDL-cholesterol concentration in blood plasma, Average value ± Standard error: in mg/dL
# Method: (§1) Male Sprague Dawley rats (Crl: CD (SD), Japan Charles River Co. Ltd., 6 weeks old) were taken for the test. Throughout the test period, the rats were bred in a breeding room maintained with a light/dark cycle (bright period under room light: 7 A.M. to 7 P.M.) at a temperature of 23±3° C. and a humidity of 55±15%, and were allowed to freely take solid feedstuff (CE-2; Oriental Yeast Co. Ltd.) and tap water. Compound A and pitavastatin were each suspended in a 0.5 mass % aqueous solution of methylcellulose (Metolose (registered trademark) SM-400, Shin-Etsu Chemical Co. Ltd.), and the amount of administration of the aqueous solution was adjusted to be 2 mL/kg. The suspension was stored in a shading bottle under refrigeration (4° C.), and the preparation was performed once every 7 days. Additionally, when the pitavastatin is a hydrate as in the case of the present Example, the water content of a standard product can be measured by a conventional method known to those ordinarily skilled in the art, and the amount required in the production of drug based on the water content of the “pitavastatin calcium hydrate” used in the present Example can be calculated. […] The two medicaments were orally administered repeatedly for 14 days at a rate of once a day (in the morning). The control group of the first group was orally administered with 2 mL/kg of a 0.5 mass % aqueous solution of methylcellulose. […] Furthermore, the LDL-cholesterol concentration in blood plasma was measured using high performance liquid chromatography according to the method of Usui et al. (Lipid Res., 43:805-814, 2002). The results were shown in the form of average value±standard error. A multiple group comparison between the control group and the drug administered groups was conducted using Dunnett' s multiple comparison test. A risk rate of less than 5% was determined to have a significant difference.
# [2] = system: total cholesterol concentration in blood plasma; experiment: Total cholesterol concentration in blood plasma of rats after repeated oral administration (Example 1); type: in vivo, Male Sprague Dawley rats; conditions: oral once a day, pitavastatin 10 mg/kg, compound A 0.3 mg/kg, N = 8
# Method: as §1
# [3] = system: triglyceride concentration in blood plasma; experiment: Triglyceride concentration in blood plasma of rats after repeated oral administration (Example 1); type: in vivo, Male Sprague Dawley rats; conditions: two weeks after the initiation of administration (14th day), oral once a day, pitavastatin 10 mg/kg, compound A 0.3 mg/kg, N = 8; for triglyceride concentration in blood plasma, Average value ± Standard error: in mg/dL
# Method: as §1
# [4] = system: triglyceride concentration in blood plasma; experiment: Plasma triglyceride concentration in Zucker fatty rats after repeated oral administration (Example 2); type: in vivo, Male Zucker fatty rats; conditions: compound A 0.1 mg/kg, pitavastatin 10 mg/kg, fenofibrate 100 mg/kg; for triglyceride concentration in blood plasma, Average value ± Standard error / triglyceride concentration in blood plasma, Relative value compared to control group: two weeks (14th day), oral once a day, N = 7-8; for rate of decrease of the triglyceride concentration in blood plasma: two weeks, vs control group
# Method: The effect of administration of compound A and pitavastatin on the plasma triglyceride concentration in this animal model was determined according to the following methods.
# Male Zucker fatty rats (Crlj: ZUC-Lepr^fa, Japan Charles River Co. Ltd., 10 weeks old) were taken for the test.
# Throughout the test period, the rats were bred in a breeding room maintained with a light/dark cycle (bright period under room light: 7 A.M. to 7 P.M.) at a temperature of 23±3° C. and a humidity of 55±15%, and were allowed to freely take solid feedstuff (CE-2; Oriental Yeast Co. Ltd.) and tap water.
# Compound A, pitavastatin and fenofibrate (Sigma-Aldrich Co. Ltd.) were each suspended in a 0.5 mass % aqueous solution of methylcellulose (Metolose (registered trademark) SM-400, Shin-Etsu Chemical Co. Ltd.), and the amount of administration of the aqueous solution was adjusted to be 2 mL/kg. The suspension was stored in a shading bottle under refrigeration (4° C.), and the preparation was carried out once every 7 days. Additionally, when the pitavastatin was a hydrate as in the case of the present Example, the water content of a standard product was measured by a conventional method known to those ordinarily skilled in the art, and the amount required in the production of drug based on the water content of the “pitavastatin calcium hydrate” used in the present Example was calculated.
# In order to average the total cholesterol concentration and the triglyceride concentration in blood plasma, the rats were divided into the following six groups (eight animals each group), that is, a control group as a first group, a group administered with compound A only (0.1 mg/kg) as a second group, a group administered with pitavastatin only (10 mg/kg) as a third group, a group administered with fenofibrate only (100 mg/kg) as a fourth group, a group administered with pitavastatin (10 mg/kg) and compound A (0.1 mg/kg) in combination as a fifth group, and a group administered with pitavastatin (10 mg/kg) and fenofibrate (100 mg/kg) in combination as a sixth group.
# The two medicaments were orally administered repeatedly for 14 days at a rate of once a day (in the morning). The control group of the first group was orally administered with 2 mL/kg of a 0.5 mass % aqueous solution of methylcellulose.
# On the 14th day after the initiation of administration, the rats were fasted for 4 hours from administration, then blood was collected, and the triglyceride concentration in blood plasma was measured by an enzymatic method.
# A multiple group comparison between the control group and the drug administered groups was conducted using Dunnett's multiple comparison test. A risk rate of less than 5% was determined to have a significant difference.
# blood glucose level = experiment: Oral glucose tolerance test in Zucker fatty rats (Example 3); type: in vivo, Male Zucker fatty rats; conditions: 28 days oral once a day, compound A 0.3 mg/kg, pitavastatin 3 mg/kg, fenofibrate 100 mg/kg
# Method: As a method for examining diabetes mellitus, an oral glucose tolerance test, that is, a method in which a test subject fasted overnight is orally fed with a glucose solution, and blood is collected before and after the feeding, to examine the degree of increase in the blood glucose level, is widely performed. Thus, the Zucker fatty rat was used and administered with medicaments, and then an oral glucose tolerance test was performed to investigate the influence of the medicament of the present invention exerted on the blood glucose level. Male Zucker fatty rats (Crlj: ZUC-Lepr^fa, Japan Charles River Co. Ltd., 9 weeks old) were taken for the test. […] Additionally, when the pitavastatin was a hydrate as in the case of the present Example, the water content of a standard product was measured by a conventional method known to those ordinarily skilled in the art, and the amount required in the production of drug based on the water content of the “pitavastatin calcium hydrate” used in the present Example was calculated. […] The blood glucose level was measured by an enzymatic method. […] A risk rate of less than 5% was determined to have a significant difference.
# [5] = system: total plasma cholesterol concentration; conditions: results of clinical trials; cited from earlier work
# [6] = one week after administration (7th day), 4 h fasted
# [7] = two weeks after the initiation of administration (14th day)
# [8] = two weeks after the initiation of administration (14th day), in mg/dL
Structure (SMILES),"LDL-cholesterol concentration in blood plasma, Relative value compared to control group [1]","LDL-cholesterol concentration in blood plasma, Average value ± Standard error [1]","total cholesterol concentration in blood plasma, Average value ± Standard error [2, 6]","total cholesterol concentration in blood plasma, Relative value compared to control group ([2]; one week after administration (7th day))","total cholesterol concentration in blood plasma, Relative value compared to control group ([2]; one week after administration (7th day), listed as compound A)","total cholesterol concentration in blood plasma, Relative value compared to control group [2, 7]","total cholesterol concentration in blood plasma, Average value ± Standard error [2, 8]","triglyceride concentration in blood plasma, Relative value compared to control group [3]","triglyceride concentration in blood plasma, Average value ± Standard error [3]","triglyceride concentration in blood plasma, Relative value compared to control group ([3]; listed as compound A)","triglyceride concentration in blood plasma, Average value ± Standard error [4]","triglyceride concentration in blood plasma, Relative value compared to control group [4]",rate of decrease of the triglyceride concentration in blood plasma [4],change in blood glucose level over time after glucose loading (FIG. 3A) (blood glucose level),rate of improvement in the total plasma cholesterol concentration [5],"total cholesterol concentration in blood plasma, Relative value compared to control group ([2]; one week after administration (7th day), calcium hydrate)","total cholesterol concentration in blood plasma, Relative value compared to control group ([2]; one week after administration (7th day), listed as pitavastatin, calcium hydrate)","triglyceride concentration in blood plasma, Relative value compared to control group ([3]; calcium hydrate)"
"CC[C@@H](Oc1cccc(CN(CCCOc2ccc(OC)cc2)c2nc3ccccc3o2)c1)C(=O)O [Compound A, (R)-2-[3-[[N-(Benzoxazol-2-yl)-N-3-(4-methoxyphenoxy)propyl]aminomethyl]phenoxy]butyric acid]",0.698,8.1 ± 0.4,48.3 ± 1.8 mg/dL,0.792,0.903,0.752,43.4 ± 1.9,0.806,33.3 ± 2.2,0.942,518.0 ± 106.0 mg/dL,0.798,20%,rapid increases in the blood glucose level,,,,
"O=C(O)C[C@H](O)C[C@H](O)/C=C/c1c(C2CC2)nc2ccccc2c1-c1ccc(F)cc1 [Pitavastatin, pitavastatin calcium hydrate]",0.974,11.3 ± 1.8,55.1 ± 5.7 mg/dL,,,0.997,57.5 ± 6.6,0.942,38.9 ± 3.1,,612.2 ± 61.0 mg/dL,0.943,6%,rapid increases in the blood glucose level,93.9%,0.903,0.792,0.806
"CC(C)OC(=O)C(C)(C)Oc1ccc(C(=O)c2ccc(Cl)cc2)cc1 [Fenofibrate, fenofibrate]",,,,,,,,,,,546.3 ± 58.9 mg/dL,0.841,16%,,,,,

# Source: US20100069433A1, “PROPHYLACTIC AND/OR THERAPEUTIC AGENT FOR HYPERLIPIDEMIA” (KOWA COMPANY, LTD., priority 2007, published 2010)
